Source: ChEMBL document CHEMBL5108087, “Synthesis and biological evaluation of paeoveitol D derivatives as new melatonin receptor agonists with antidepressant activities” (RSC Med Chem, 2022)

Tests used:
[1] = molecular target: T1, Melatonin receptor type 1B (Homo sapiens, UniProt P49286); assay: Agonist activity at human MT2 receptor expressed in HEK293 cells by Fluo-8 based calcium assay; type: functional, cell-based
T1 sequence (P49286 whole entry): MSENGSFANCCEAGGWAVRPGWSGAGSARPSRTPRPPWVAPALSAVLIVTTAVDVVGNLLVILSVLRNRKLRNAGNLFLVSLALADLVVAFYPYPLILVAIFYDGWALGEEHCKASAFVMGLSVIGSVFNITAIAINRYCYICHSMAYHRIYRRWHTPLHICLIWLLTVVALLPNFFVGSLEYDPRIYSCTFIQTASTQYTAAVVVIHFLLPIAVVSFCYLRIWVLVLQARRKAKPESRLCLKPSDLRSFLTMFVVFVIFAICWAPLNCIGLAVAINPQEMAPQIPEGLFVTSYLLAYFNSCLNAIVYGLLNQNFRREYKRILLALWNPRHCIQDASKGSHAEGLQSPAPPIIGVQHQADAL

[2] = molecular target: Melatonin receptor type 1A (Homo sapiens, UniProt P48039); assay: Agonist activity at human MT1 receptor expressed in HEK293 cells by Fluo-8 based calcium assay; type: functional, cell-based
Chain of Melatonin receptor type 1A (P48039 whole entry): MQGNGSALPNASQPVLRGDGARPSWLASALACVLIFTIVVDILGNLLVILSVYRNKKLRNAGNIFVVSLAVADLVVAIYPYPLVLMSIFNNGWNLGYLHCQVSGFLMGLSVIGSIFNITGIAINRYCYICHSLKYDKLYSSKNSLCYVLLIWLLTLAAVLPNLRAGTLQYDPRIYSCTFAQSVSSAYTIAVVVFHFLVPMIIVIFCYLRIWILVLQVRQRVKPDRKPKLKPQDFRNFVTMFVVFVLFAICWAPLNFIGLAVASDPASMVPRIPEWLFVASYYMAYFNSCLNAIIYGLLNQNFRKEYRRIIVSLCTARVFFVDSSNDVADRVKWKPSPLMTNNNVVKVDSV

- EC50 [1]: 520 µM
- EC50 [2]: 700 µM
Structure (SMILES): COc1cc2c(CO)coc2cc1C
